Test results: paper PMC7918612, “Novel Inhibitors of Nicotinamide-N-Methyltransferase for the Treatment of Metabolic Disorders” (Molecules, 2021)
Positions count from the first letter of the chain named.

How the values were obtained:
CYP3A4 = CYP3A4 (Homo sapiens, UniProt P08684); test: CYP3A4 inhibition; format: in vitro ADME
human NNMT [1] = biological target: T1, human NNMT (Homo sapiens, UniProt P40261); test: Fluorescence-based NNMT enzymatic assay (human enzyme); format: biochemical; conditions: for IC50: read-out: hNNMT IC50
T1 sequence (P40261 1-264): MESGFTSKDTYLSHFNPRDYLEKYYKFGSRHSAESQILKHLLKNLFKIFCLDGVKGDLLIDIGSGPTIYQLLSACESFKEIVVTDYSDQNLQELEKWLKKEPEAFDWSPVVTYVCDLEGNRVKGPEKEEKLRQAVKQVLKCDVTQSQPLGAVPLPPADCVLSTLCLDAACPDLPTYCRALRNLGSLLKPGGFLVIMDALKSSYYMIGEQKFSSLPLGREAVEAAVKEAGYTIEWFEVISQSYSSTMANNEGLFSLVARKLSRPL
Method: (§1) Experimental Procedures S2: Fluorescence-based NNMT enzymatic assay
(§2) NNMT activity was measured by fluorescence based assay. The product MNA formed in the reaction reacts with acetophenone in the presence of KOH and formic acid and forms a fluorescent product 2, 7- naphthyridine. The fluorescence intensity measured with excitation at 375nm and emission at 430nm. Inhibitors were screened using human, mouse and monkey NNMT enzymes. Different concentrations of inhibitors were pre-incubated along with 5ng/well of human NNMT enzyme and 3.42ng/well of mouse NNMT enzyme for 30 minutes at room temperature. Reaction was initiated by addition of SAM and nicotinamide mixture (7µM, 20µM, 8µM SAM and 6µM, 20µM, 9µM nicotinamide for human, mouse and monkey NNMT assays respectively) and incubated for 60 minutes at 37°C. The final assay reaction mixture contained a buffer of 100mM Tris Hcl pH 7.5, 0.04% BSA, 2mM Dithiothreitol and 1% DMSO. The reaction was terminated by addition of Ethanol: Acetophenone mix (75% ethanol: 25% Acetophenone) and 5M potassium Hydroxide prepared with 50% Ethanol. The reaction was incubated for 15 minutes followed by addition of 100µl of 60% formic acid and further incubation for 60 minutes at room temperature. A fluorescent product 2, 7- naphthyridine was measured in a Tecan reader with excitation at 375nm and emission at 430nm. The IC50 values were determined by fitting the inhibition curves (percent inhibition versus inhibitor concentration) using a four parametric sigmoidal dose response in graph pad prism. […]

[2] = Metabolic stability in liver microsomes (species not specified); format: in vitro ADME
Method: Experimental Procedures S3: Metabolic stability in human and mouse liver microsomes
These profiling studies were carried out as described in Mullangi R. et. al. Preclinical assessment of
ulixertinib, a novel ERK1/2 inhibitor, ADMET & DMPK, 2017, 212-223;

mouse NNMT = biological target: T2, mouse NNMT (Mus musculus, UniProt O55239); test: Fluorescence-based NNMT enzymatic assay (mouse enzyme); format: biochemical; conditions: read-out: mNNMT IC50
T2 sequence (O55239 1-264): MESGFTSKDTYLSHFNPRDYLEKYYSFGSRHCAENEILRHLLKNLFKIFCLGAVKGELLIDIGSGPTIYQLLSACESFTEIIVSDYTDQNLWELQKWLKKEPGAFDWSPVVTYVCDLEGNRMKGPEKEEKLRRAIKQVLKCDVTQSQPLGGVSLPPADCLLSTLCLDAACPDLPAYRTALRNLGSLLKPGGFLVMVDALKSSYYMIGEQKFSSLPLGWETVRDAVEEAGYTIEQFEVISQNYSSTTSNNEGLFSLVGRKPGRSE
Method: as §1, §2

human NNMT [3] = biological target: T3, human NNMT (Homo sapiens, UniProt P40261, E101A/E103A/K100A); test: Thermal shift (DSF) measurement of NNMT stabilisation; format: binding; conditions: together with cofactor (reaction product) SAH
T3 construct: His-tag; thrombin protease site; made in house
T3 sequence (P40261 1-264 K100A/E101A/E103A): T1 sequence (P40261 1-264) with K100A, E101A, E103A

Chain of CYP3A4 (P08684 whole entry, species assumed): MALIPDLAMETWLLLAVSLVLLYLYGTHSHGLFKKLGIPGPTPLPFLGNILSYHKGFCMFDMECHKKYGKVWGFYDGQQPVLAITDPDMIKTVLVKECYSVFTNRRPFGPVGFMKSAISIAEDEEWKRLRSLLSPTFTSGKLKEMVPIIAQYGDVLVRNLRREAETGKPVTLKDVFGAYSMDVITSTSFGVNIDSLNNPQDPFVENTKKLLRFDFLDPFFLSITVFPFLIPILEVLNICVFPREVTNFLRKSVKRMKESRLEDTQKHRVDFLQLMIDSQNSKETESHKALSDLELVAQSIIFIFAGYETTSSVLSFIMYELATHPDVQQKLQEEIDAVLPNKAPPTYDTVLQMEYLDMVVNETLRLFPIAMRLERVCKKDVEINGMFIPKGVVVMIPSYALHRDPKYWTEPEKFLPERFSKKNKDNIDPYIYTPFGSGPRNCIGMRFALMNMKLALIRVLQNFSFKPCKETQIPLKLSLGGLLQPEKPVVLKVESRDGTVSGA

Structure (SMILES) | CYP3A4 inhibition liabilities (CYP3A4) | hNNMT potency, in words (human NNMT [1]) | IC50 (human NNMT [1]) | metabolic stability, in words [2] | IC50 (mouse NNMT) | mode of inhibition (human NNMT [1]; competition with substrates nicotinamide / SAM) | stabilization in DSF experiments, in words (human NNMT [3])
CN1Cc2cccc3c2N(CCC3)C1=N [Compound 4] | no CYP3A4 inhibition liabilities were detected | two-digit nano-molar potency | 0.07 µM | in an acceptable range | 0.1 µM |  | 
N=c1sc2cccc3c2n1CCC3 [Compound 2] |  |  | 1.3 µM |  | 2.3 µM | competitive inhibitors either of nicotinamide alone | strong additive stabilization
